Earlier results on one molecule are cited in PubChem BioAssay AID1259409 (Chemical Carcinogenesis Research Information System (CCRIS), 2018).

The test system of this data set is rodent chemically induced tumor inhibition, incidence and multiplicity. The data set can be described thus: CCRIS tumor inhibitor studies. The settings on record: Carcinogen: 7,12-DIMETHYLBENZ[A]ANTHRACENE, 57-97-6.

Regarding `CC1=C(/C=C/C(C)=C/C=C/C(C)=C/C(=O)O)C(C)(C)CCC1`, the “tumour outcome (control, treated, inhibition, significance)” value (Dose [Inhibitor]: 0, 2 NMOL IN 200 µL ACETONE APPLIED 30 MIN PRIOR TO EACH PROMOTER DOSE 2/WK FOR 25 WK BEGINNING 1 WK POST CARCINOGEN DOS, Route [Inhibitor]: DERMAL, Species: MOUSE, Strain/Sex: CD-1/FEMALE, Target Tissue: Type of Lesion: SKIN: PAPILLOMA, Dose [Carcinogen]: 200 NMOL IN 200 µL ACETONE ONCE, Promoter: 12-O-TETRADECANOYLPHORBOL-13-ACETATE, 16561-29-8) is 90%, 83%, 8%, not calculated; the “tumour outcome (control, treated, inhibition, significance)” value (Dose [Inhibitor]: 0, 2 NMOL IN 200 µL ACETONE APPLIED 30 MIN PRIOR TO EACH PROMOTER DOSE 2/WK FOR 25 WK BEGINNING 1 WK POST CARCINOGEN DOS, Route [Inhibitor]: DERMAL, Species: MOUSE, Strain/Sex: CD-1/FEMALE, Target Tissue: Type of Lesion: SKIN: PAPILLOMA, Dose [Carcinogen]: 200 NMOL IN 200 µL ACETONE ONCE, Promoter: MIREX, 2385-85-5) is 100%, 100%, 0%, not significant; the “tumour outcome (control, treated, inhibition, significance)” value (Dose [Inhibitor]: 0, 3 NMOL IN 0.1 ML ACETONE 2/WK APPLIED 40 MIN PRIOR TO EACH PROMOTER DOSE FOR 20 WK (STUDY DURATION: 21 WK), Route [Inhibitor]: DERMAL, Species: MOUSE, Strain/Sex: ICR/FEMALE, Target Tissue: Type of Lesion: SKIN: PAPILLOMA, Dose [Carcinogen]: 100 UG IN 0.1 ML ACETONE ONCE, Promoter: 12-0-TETRADECANOYLPHORBOL-13-ACETATE, 16561-29-8) was 99%, 68%, 31%, p<0.01; the “tumour outcome (control, treated, inhibition, significance)” value (Dose [Inhibitor]: 0, 5 NMOL IN 200 µL ACETONE APPLIED 30 MIN PRIOR TO EACH PROMOTER DOSE 2/WK FOR 25 WK BEGINNING 1 WK POST CARCINOGEN DOS, Route [Inhibitor]: DERMAL, Species: MOUSE, Strain/Sex: CD-1/FEMALE, Target Tissue: Type of Lesion: SKIN: PAPILLOMA, Dose [Carcinogen]: 200 NMOL IN 200 µL ACETONE ONCE, Promoter: 12-O-TETRADECANOYLPHORBOL-13-ACETATE, 16561-29-8) was 90%, 76%, 16%, not calculated; the “tumour outcome (control, treated, inhibition, significance)” value (Dose [Inhibitor]: 0, 5 NMOL IN 200 µL ACETONE APPLIED 30 MIN PRIOR TO EACH PROMOTER DOSE 2/WK FOR 25 WK BEGINNING 1 WK POST CARCINOGEN DOS, Route [Inhibitor]: DERMAL, Species: MOUSE, Strain/Sex: CD-1/FEMALE, Target Tissue: Type of Lesion: SKIN: PAPILLOMA, Dose [Carcinogen]: 200 NMOL IN 200 µL ACETONE ONCE, Promoter: MIREX, 2385-85-5) was 100%, 100%, 0%, not significant; the “tumour outcome (control, treated, inhibition, significance)” value (Dose [Inhibitor]: 0, 10 UG IN 0.2 ML ACETONE 1/WK FOR 5 WK APPLIED 60 MIN PRIOR TO EACH PROMOTER DOSE BEGINNING 1 WK POST CARCINOGEN DOSE, Route [Inhibitor]: DERMAL, Species: MOUSE, Strain/Sex: SENCAR/FEMALE, Target Tissue: Type of Lesion: SKIN: PAPILLOMA, Dose [Carcinogen]: 20 UG IN 0.2 ML ACETONE ONCE, Promoter: 12-O-TETRADECANOYLPHORBOL-13-ACETATE, 16561-29-8) is 50%, 10%, 80%, p<0.0001. Also, the “tumour outcome (control, treated, inhibition, significance)” value (Dose [Inhibitor]: 0, 10 UG IN 0.2 ML ACETONE 1/WK FOR 20 WK APPLIED 60 MIN PRIOR TO EACH PROMOTER DOSE BEGINNING 1 WK POST CARCINOGEN DOSE, Route [Inhibitor]: DERMAL, Species: MOUSE, Strain/Sex: SENCAR/FEMALE, Target Tissue: Type of Lesion: SKIN: PAPILLOMA, Dose [Carcinogen]: 20 UG IN 0.2 ML ACETONE ONCE, Promoter: 12-O-TETRADECANOYLPHORBOL-13-ACETATE, 16561-29-8) was 95%, 55%, 42%, p<0.05; the “tumour outcome (control, treated, inhibition, significance)” value (Dose [Inhibitor]: 0, 10 UG IN 0.2 ML ACETONE 2/WK FOR 19 WK BEGINNING 15 WK POST PROMOTION TREATMENT (STUDY DURATION: 49 WK), Route [Inhibitor]: DERMAL, Species: MOUSE, Strain/Sex: SENCAR/FEMALE, Target Tissue: Type of Lesion: SKIN: CARCINOMA, Dose [Carcinogen]: 20 UG IN 0.2 ML ACETONE ONCE, Promoter: 12-O-TETRADECANOYLPHORBOL-13-ACETATE, 16561-29-8) was 99%, 54%, 45%, p<0.01; the “tumour outcome (control, treated, inhibition, significance)” value (Dose [Inhibitor]: 0, 10 UG IN 0.2 ML ACETONE 2/WK FOR 19 WK BEGINNING POST PROMOTION TREATMENT (STUDY DURATION: 49 WK), Route [Inhibitor]: DERMAL, Species: MOUSE, Strain/Sex: SENCAR/FEMALE, Target Tissue: Type of Lesion: SKIN: CARCINOMA, Dose [Carcinogen]: 20 UG IN 0.2 ML ACETONE ONCE, Promoter: 12-O-TETRADECANOYLPHORBOL-13-ACETATE, 16561-29-8) is 88%, 52%, 41%, p<0.01; the “tumour outcome (control, treated, inhibition, significance)” value (Dose [Inhibitor]: 0, 10 UG IN 0.2 ML ACETONE 2/WK FOR 19 WK BEGINNING POST PROMOTION TREATMENT (STUDY DURATION: 49 WK), Route [Inhibitor]: DERMAL, Species: MOUSE, Strain/Sex: SENCAR/FEMALE, Target Tissue: Type of Lesion: SKIN: CARCINOMA, Dose [Carcinogen]: 20 UG IN 0.2 ML ACETONE ONCE, Promoter: MEZEREIN, 34807-41-5) is given as 100%, 65%, 35%, p<0.01; the “tumour outcome (control, treated, inhibition, significance)” value (Dose [Inhibitor]: 0, 10 UG IN 0.2 ML ACETONE 2/WK FOR 20 WK APPLIED 60 MIN PRIOR TO EACH PROMOTER DOSE BEGINNING 1 WK POST CARCINOGEN DOSE, Route [Inhibitor]: DERMAL, Species: MOUSE, Strain/Sex: SENCAR/FEMALE, Target Tissue: Type of Lesion: SKIN: PAPILLOMA, Dose [Carcinogen]: 20 UG IN 0.2 ML ACETONE ONCE, Promoter: MEZEREIN, 34807-41-5) is 86%, 56%, 35%, p<0.05; the “tumour outcome (control, treated, inhibition, significance)” value (Dose [Inhibitor]: 0, 30 UG/G OF DIET FOR DURATION OF STUDY (STUDY DURATION: 35 WK), Route [Inhibitor]: ORAL, Species: MOUSE, Strain/Sex: SENCAR/FEMALE, Target Tissue: Type of Lesion: SKIN: PAPILLOMA, Dose [Carcinogen]: 25.5 UG IN 0.2 ML ACETONE 1/WK FOR 20 WK, Promoter: NONE USED) is 100%, 90%, 10%, not significant (at 20 wk). In addition, the “tumour outcome (control, treated, inhibition, significance)” value runs as follows: (Dose [Inhibitor]: 0, 30 UG/G OF DIET FOR DURATION OF STUDY (STUDY DURATION: 35 WK), Route [Inhibitor]: ORAL, Species: RAT, Strain/Sex: SENCAR/FEMALE, Target Tissue: Type of Lesion: SKIN: CARCINOMA, Dose [Carcinogen]: 25.5 UG IN 0.2 ML ACETONE 1/WK FOR 20 WK, Promoter: NONE USED) 24%, 19%, 21%, not significant; (Dose [Inhibitor]: 0, 30 UG/G OF DIET FOR DURATION OF STUDY (STUDY DURATION: 40 WK), Route [Inhibitor]: ORAL, Species: MOUSE, Strain/Sex: SENCAR/FEMALE, Target Tissue: Type of Lesion: SKIN: CARCINOMA, Dose [Carcinogen]: 20 UG IN 0.2 ML OF ACETONE ONCE, Promoter: 12-O-TETRADECANOYLPHORBOL-13-ACETATE, 16561-29-8) 30%, 11%, 63%, p=0.027; (Dose [Inhibitor]: 0, 30 UG/G OF DIET FOR DURATION OF STUDY (STUDY DURATION: 40 WK), Route [Inhibitor]: ORAL, Species: MOUSE, Strain/Sex: SENCAR/FEMALE, Target Tissue: Type of Lesion: SKIN: CARCINOMA, Dose [Carcinogen]: 20 UG IN 0.2 ML OF ACETONE ONCE, Promoter: MEZEREIN, 34807-41-5) 31%, 5%, 84%, p=0.002; (Dose [Inhibitor]: 1.7 NMOL IN 0.2 ML ACETONE 1 HR PRIOR TO EACH PROMOTER DOSE FOR 12 WK (STUDY DURATION: 14 WK), Route [Inhibitor]: DERMAL, Species: MOUSE, Strain/Sex: SENCAR/FEMALE, Target Tissue: Type of Lesion: SKIN: PAPILLOMA, Dose [Carcinogen]: 200 NMOL IN 0.2 ML ACETONE ONCE, Promoter: 12-O-TETRADECANOYLPHORBOL-13-ACETATE, 16561-29-8) 100%, 100%, 0%, not calculated; (Dose [Inhibitor]: 1.7 NMOL IN 0.2 ML ACETONE 1 HR PRIOR TO EACH PROMOTER DOSE FOR 20 WK (STUDY DURATION: 22 WK), Route [Inhibitor]: DERMAL, Species: MOUSE, Strain/Sex: CD-1/FEMALE, Target Tissue: Type of Lesion: SKIN: PAPILLOMA, Dose [Carcinogen]: 200 NMOL IN 0.2 ML ACETONE ONCE, Promoter: 12-O-TETRADECANOYLPHORBOL-13-ACETATE, 16561-29-8) 94%, 80%, 15%, not calculated; (Dose [Inhibitor]: 1.7 NMOL IN 0.2 ML ACETONE 2/WK 1 HR BEFORE EACH PROMOTER APPLICATION STARTING 14 D AFTER CARCINOGEN APPLICATION AND CON, Route [Inhibitor]: DERMAL, Species: MOUSE, Strain/Sex: CD-1/FEMALE, Target Tissue: Type of Lesion: SKIN: PAPILLOMA, Dose [Carcinogen]: 0.2 UMOL IN 0.2 ML ACETONE ONCE, Promoter: 12-O-TETRADECANOYLPHORBOL-13-ACETATE, 16561-29-8) 100%, 90%, 10%, not significant. Further, the “tumour outcome (control, treated, inhibition, significance)” value by setting is: (Dose [Inhibitor]: 3, 30 UG IN DIET FOR DURATION OF STUDY (STUDY DURATION: 44 WK), Route [Inhibitor]: ORAL, Species: MOUSE, Strain/Sex: SENCAR/FEMALE, Target Tissue: Type of Lesion: SKIN: PAPILLOMA, Dose [Carcinogen]: 20 UG IN 0.2 ML ACETONE ONCE, Promoter: 12-O-TETRADECANOYLPHORBOL-13-ACETATE, 16561-29-8) 100%, 100%, 0%, not significant; (Dose [Inhibitor]: 3, 30 UG/G OF DIET FOR DURATION OF STUDY BEGINNING POST CARCINOGEN DOSE (STUDY DURATION: 40 WK), Route [Inhibitor]: ORAL, Species: MOUSE, Strain/Sex: SENCAR/FEMALE, Target Tissue: Type of Lesion: SKIN: CARCINOMA, Dose [Carcinogen]: 20 UG IN 0.2 ML ACETONE ONCE AT 7 WK OF AGE, Promoter: 12-O-TETRADECANOYLPHORBOL-13-ACETATE, 16561-29-8) 12/38 (32%), 3/30 (10%), 69%, p<0.05; (Dose [Inhibitor]: 3, 30 UG/G OF DIET FOR DURATION OF STUDY BEGINNING POST CARCINOGEN DOSE (STUDY DURATION: 40 WK), Route [Inhibitor]: ORAL, Species: MOUSE, Strain/Sex: SENCAR/FEMALE, Target Tissue: Type of Lesion: SKIN: CARCINOMA, Dose [Carcinogen]: 20 UG IN 0.2 ML ACETONE ONCE AT 7 WK OF AGE, Promoter: MEZEREIN, 34807-41-5) 12/39 (31%), 5/40 (13%), 58%, p<0.05.
